Test results as given in patent publication US6559140B2 (Abbott Laboratories, priority 2000, dated 2003).

Target: H3 receptor (Rattus norvegicus, UniProt Q9QYN8)
Assay: H3 receptor binding, (3H)-N-α-methylhistamine displacement in rat cortical membranes
Details: male Sprague-Dawley rat brain cortical membranes, 30 minutes at 25° C., Cheng-Prusoff, geometric mean values of 2-10 separate experiments
Procedure: Briefly, male Sprague-Dawley rat brain cortices were homogenized (1 g tissue/10 mL buffer) in 50 mM Tris-HCl/5 mM EDTA containing protease inhibitor cocktail (Calbiochem) using a polytron set at 20,500 rpm. Homogenates were centrifuged for 20 minutes at 40,000×g. The supernatant was decanted, and pellets were weighed. The pellet was resuspended by polytron homogenization in 40 mL 50 mM Tris-HCl/5 mM EDTA with protease inhibitors and centrifuged for 20 minutes at 40,000×g. […] Test compounds were added to the incubation mixtures prior to initiating the incubation assay by addition of the membranes. Thioperamide (3 μM) was used to determine nonspecific binding. Binding incubations were conducted for 30 minutes at 25° C. and terminated by addition of 2 mL of ice cold 50 mM Tris-HCl (H 7.7) and filtration through 0.3% polyethylenimine-soaked Unifilter plates (Packard). These filters were washed 4 additional times with 2 mL of ice-cold 50 mM Tris-HCl and dried for 1 hour. Radioactivity was determined using liquid scintillation counting techniques. Results were analyzed by Hill transformation and Ki values were determined using the Cheng-Prusoff equation.

Chain of H3 receptor (Q9QYN8 1-397 isoform Q9QYN8-3): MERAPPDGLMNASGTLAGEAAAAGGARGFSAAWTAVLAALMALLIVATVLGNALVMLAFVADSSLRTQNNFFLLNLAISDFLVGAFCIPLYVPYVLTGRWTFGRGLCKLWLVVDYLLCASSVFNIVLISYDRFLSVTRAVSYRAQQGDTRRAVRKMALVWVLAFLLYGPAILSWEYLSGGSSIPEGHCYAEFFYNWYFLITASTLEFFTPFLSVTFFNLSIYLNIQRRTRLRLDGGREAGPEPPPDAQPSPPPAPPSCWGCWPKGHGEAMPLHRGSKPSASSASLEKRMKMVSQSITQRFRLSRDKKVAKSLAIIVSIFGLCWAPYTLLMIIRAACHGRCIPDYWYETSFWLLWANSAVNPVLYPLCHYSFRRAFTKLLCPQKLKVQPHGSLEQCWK

Ki [nM] | Compound
3.94 | C[C@@H](NC(=O)c1ccco1)C(=O)N1CCCN(CCCOc2ccc(-c3noc(-c4cccs4)n3)c(F)c2)CC1 [Example 148, N-{(1R)-2-[4-(3-{3-fluoro-4-[5-(2-thienyl)-1,2,4-oxadiazol-3-yl]phenoxy}propyl)-1,4-diazepan-1-yl]-1-methyl-2-oxoethyl}-2-furamide]
6.24 | C[C@@H](NC(=O)c1ccco1)C(=O)N1CCCN(CCCOc2ccc(-c3noc(-c4nccs4)n3)c(F)c2)CC1 [Example 149, N-{(1R)-2-[4-(3-{3-fluoro-4-[5-(1,3-thiazol-2-yl)-1,2,4-oxadiazol-3-yl]phenoxy}propyl)-1,4-diazepan-1-yl]-1-methyl-2-oxoethyl}-2-furamide]
26.1 | N#Cc1ccc(C(=O)NCCC(=O)N2CCN(CCCOc3ccc(-c4noc(-c5ccccc5)n4)c(F)c3)CC2)cc1 [Example 153, 4′-cyano-N-[3-(4-{3-[3-fluoro-4-(5-phenyl-1,2,4-oxadiazol-3-yl)phenoxy]propyl}-1-piperazinyl)-3-oxopropyl]benzamide]
4.98 | C[C@@H](NC(=O)c1cccs1)C(=O)N1CCN(CCCOc2ccc(-c3noc(-c4ccccc4)n3)c(F)c2)CC1 [Example 159, N-[(1R)-2-(4-{3-[3-fluoro-4-(5-phenyl-1,2,4-oxadiazol-3-yl)phenoxy]propyl}-1-piperazinyl)-1-methyl-2-oxoethyl]-2-thiophenecarboxamide]
2.29 | C[C@@H](NC(=O)c1cccnc1)C(=O)N1CCN(CCCOc2ccc(-c3noc(-c4ccccc4)n3)c(F)c2)CC1 [Example 160, N-[(1R)-2-(4-{3-[3-fluoro-4-(5-phenyl-1,2,4-oxadiazol-3-yl)phenoxy]propyl}-1-piperazinyl)-1-methyl-2-oxoethyl]nicotinamide]
11 | CC(C)CC(=O)N[C@H](C)C(=O)N1CCN(CCCOc2ccc(-c3noc(-c4ccccc4)n3)c(F)c2)CC1 [Example 165, N-[(1R)-2-(4-{3-[3-fluoro-4-(5-phenyl-1,2,4-oxadiazol-3-yl)phenoxy]propyl}-1-piperazinyl)-1-methyl-2-oxoethyl]-3-methylbutanamide]
6.79 | C[C@@H](N)C(=O)N1CCN(CCCOc2ccc(-c3noc(CC4CCCC4)n3)c(F)c2)CC1 [Example 168, (2R)-1-[4-(3-{4-[5-(cyclopentylmethyl)-1,2,4-oxadiazol-3-yl]-3-fluorophenoxy}propyl)-1-piperazinyl]-1-oxo-2-propanamine]
1.88 | COc1ccc(C(=O)N[C@H](C)C(=O)N2CCN(CCCOc3ccc(-c4noc(CC5CCCC5)n4)c(F)c3)CC2)cc1 [Example 175, N-{(1R)-2-[4-(3-{4-[5-(cyclopentylmethyl)-1,2,4-oxadiazol-3-yl]-3-fluorophenoxy}propyl)-1-piperazinyl]-1-methyl-2-oxoethyl}-4-methoxybenzamide]

The next lines start with the molecule.

Compound | Ki [nM]
C[C@@H](NC(=O)c1ccco1)C(=O)N1CCCN(CCCOc2ccc(-c3noc(-c4ccncc4)n3)c(F)c2)CC1 [Example 150, N-{(1R)-2-[4-(3-{3-fluoro-4-[5-(4-pyridinyl)-1,2,4-oxadiazol-3-yl]phenoxy}propyl)-1,4-diazepan-1-yl]-1-methyl-2-oxoethyl}-2-furamide] | 12.6
C[C@@H](NC(=O)c1ccco1)C(=O)N1CCCN(CCCOc2ccc(-c3noc(-c4ccccc4)n3)c(F)c2)CC1 [Example 151, N-[(1R)-2-(4-{3-[3-fluoro-4-(5-phenyl-1,2,4-oxadiazol-3-yl)phenoxy]propyl}-1,4-diazepan-1-yl)-1-methyl-2-oxoethyl]-2-furamide] | 4.29
C[C@@H](NC(=O)c1ccco1)C(=O)N1CCCN(CCCOc2ccc(-c3noc(CCc4ccccc4)n3)c(F)c2)CC1 [Example 152, N-{(1R)-2-[4-(3-{3-fluoro-4-[5-(2-phenylethyl)-1,2,4-oxadiazol-3-yl]phenoxy}propyl)-1,4-diazepan-1-yl]-1-methyl-2-oxoethyl}-2-furamide] | 1.01
O=C(NCCC(=O)N1CCN(CCCOc2ccc(-c3noc(-c4ccccc4)n3)c(F)c2)CC1)c1ccsc1 [Example 154, N-[3-(4-{3-[3-fluoro-4-(5-phenyl-1,2,4-oxadiazol-3-yl)phenoxy]propyl}-1-piperazinyl)-3-oxopropyl]-3-thiophenecarboxamide] | 25
O=C(NCCC(=O)N1CCN(CCCOc2ccc(-c3noc(-c4ccccc4)n3)c(F)c2)CC1)[C@H]1CCCO1 [Example 155, (2R)-N-[3-(4-{3-[3-fluoro-4-(5-phenyl-1,2,4-oxadiazol-3-yl)phenoxy]propyl}-1-piperazinyl)-3-oxopropyl]tetrahydro-2-furancarboxamide] | 17.1
Cc1cc(C)c(C(=O)NCCC(=O)N2CCN(CCCOc3ccc(-c4noc(-c5ccccc5)n4)c(F)c3)CC2)s1 [Example 156, N-[3-(4-{3-[3-fluoro-4-(5-phenyl-1,2,4-oxadiazol-3-yl)phenoxy]propyl}-1-piperazinyl)-3-oxopropyl]-3,5-dimethyl-2-thiophenecarboxamide] | 13.7
Cc1cc(C(=O)NCCC(=O)N2CCN(CCCOc3ccc(-c4noc(-c5ccccc5)n4)c(F)c3)CC2)c(C)o1 [Example 157, N-[3-(4-{3-[3-fluoro-4-(5-phenyl-1,2,4-oxadiazol-3-yl)phenoxy]propyl}-1-piperazinyl)-3-oxopropyl]-2,5-dimethyl-3-furamide] | 46.1
O=C(NCCC(=O)N1CCN(CCCOc2ccc(-c3noc(-c4ccccc4)n3)c(F)c2)CC1)C1CCCC1 [Example 158, N-[3-(4-{3-[3-fluoro-4-(5-phenyl-1,2,4-oxadiazol-3-yl)phenoxy]propyl}-1-piperazinyl)-3-oxopropyl]cyclopentanecarboxamide] | 11.7
C[C@@H](NC(=O)c1ccco1)C(=O)N1CCN(CCCOc2ccc(-c3noc(-c4ccccc4)n3)c(F)c2)CC1 [Example 161, N-[(1R)-2-(4-{3-[3-fluoro-4-(5-phenyl-1,2,4-oxadiazol-3-yl)phenoxy]propyl}-1-piperazinyl)-1-methyl-2-oxoethyl]-2-furamide] | 2.41
C[C@@H](NC(=O)c1ccno1)C(=O)N1CCN(CCCOc2ccc(-c3noc(-c4ccccc4)n3)c(F)c2)CC1 [Example 162, N-[(1R)-2-(4-{3-[3-fluoro-4-(5-phenyl-1,2,4-oxadiazol-3-yl)phenoxy]propyl}-1-piperazinyl)-1-methyl-2-oxoethyl]-5-isoxazolecarboxamide] | 13
C[C@@H](NC(=O)[C@@H]1CCCO1)C(=O)N1CCN(CCCOc2ccc(-c3noc(-c4ccccc4)n3)c(F)c2)CC1 [Example 163, (2S)-N-[(1R)-2-(4-{3-[3-fluoro-4-(5-phenyl-1,2,4-oxadiazol-3-yl)phenoxy]propyl}-1-piperazinyl)-1-methyl-2-oxoethyl]tetrahydro-2-furancarboxamide] | 8.35
C[C@@H](NC(=O)CCN1CCOCC1)C(=O)N1CCN(CCCOc2ccc(-c3noc(-c4ccccc4)n3)c(F)c2)CC1 [Example 164, N-[(1R)-2-(4-{3-[3-fluoro-4-(5-phenyl-1,2,4-oxadiazol-3-yl)-phenoxy]propyl}-1-piperazinyl)-1-methyl-2-oxoethyl]-3-(4-morpholinyl)propanamide] | 6.37
C[C@@H](N)C(=O)N1CCCN(CCCOc2ccc(-c3noc(CC4CCCC4)n3)c(F)c2)CC1 [Example 169, (2R)-1-[4-(3-{4-[5-(cyclopentylmethyl)-1,2,4-oxadiazol-3-yl]-3-fluorophenoxy}propyl)-1,4-diazepan-1-yl]-1-oxo-2-propanamine] | 5.63
CCC(=O)N[C@H](C)C(=O)N1CCN(CCCOc2ccc(-c3noc(CC4CCCC4)n3)c(F)c2)CC1 [Example 170, N-{(1R)-2-[4-(3-{4-[5-(cyclopentylmethyl)-1,2,4-oxadiazol-3-yl]-3-fluorophenoxy}propyl)-1-piperazinyl]-1-methyl-2-oxoethyl}propanamide] | 8.74
C[C@@H](NC(=O)CC(C)(C)C)C(=O)N1CCN(CCCOc2ccc(-c3noc(CC4CCCC4)n3)c(F)c2)CC1 [Example 171, N-{(1R)-2-[4-(3-{4-[5-(cyclopentylmethyl)-1,2,4-oxadiazol-3-yl]-3-fluorophenoxy}propyl)-1-piperazinyl]-1-1-methyl-2-oxoethyl}-3,3-dimethylbutanamide] | 5.42
C[C@@H](NC(=O)CCN1CCOCC1)C(=O)N1CCN(CCCOc2ccc(-c3noc(CC4CCCC4)n3)c(F)c2)CC1 [Example 172, N-{(1R)-2-[4-(3-{4-[5-(cyclopentylmethyl)-1,2,4-oxadiazol-3-yl]-3-fluorophenoxy}propyl)-1-piperazinyl]-1-methyl-2-oxoethyl}-3-(4-morpholinyl)propanamide] | 1.22
Cc1ccc(C(=O)N[C@H](C)C(=O)N2CCN(CCCOc3ccc(-c4noc(CC5CCCC5)n4)c(F)c3)CC2)cc1 [Example 173, N-{(1R)-2-[4-(3-{4-[5-(cyclopentylmethyl)-1,2,4-oxadiazol-3-yl]-3-fluorophenoxy}propyl)-1-piperazinyl]-1-methyl-2-oxoethyl}-4-methylbenzamide] | 1.56
C[C@@H](NC(=O)c1ccc(F)cc1)C(=O)N1CCN(CCCOc2ccc(-c3noc(CC4CCCC4)n3)c(F)c2)CC1 [Example 174, N-{(1R)-2-[4-(3-{4-[5-(cyclopentylmethyl)-1,2,4-oxadiazol-3-yl]-3-fluorophenoxy}propyl)-1-piperazinyl]-1-methyl-2-oxoethyl}-4-fluorobenzamide] | 0.81
